From ChEMBL document CHEMBL1671702, “Baseline genotypic and phenotypic susceptibilities of HIV-1 group O to enfuvirtide” (Antimicrob Agents Chemother, 2010)
Active and inactive are the calls of the source. The rule behind the calls is not given here.

Legend:
[1] = tested on: Human immunodeficiency virus type 1 (BRU ISOLATE); assay: Antiviral activity against Human immunodeficiency virus type 1 (BRU ISOLATE); type: functional
[2] = tested on: Human immunodeficiency virus 2; assay: Antiviral activity against Human immunodeficiency virus type 2 (ISOLATE ROD); type: functional, organism-based
[3] = tested on: Human immunodeficiency virus 1; assay: Antiviral activity against HIV-1 group O; details: Human immunodeficiency virus 1, group O
[4] = tested on: Human immunodeficiency virus 1; assay: Antiviral activity against HIV-1 group O expressing gp41 N42D, N43K mutant gene; type: functional
[5] = tested on: Human immunodeficiency virus 1; assay: Antiviral activity against HIV-1 group M; details: Human immunodeficiency virus 1, group M
[6] = tested on: Human immunodeficiency virus 1; assay: Antiviral activity against HIV-1 group O expressing gp41 T27A mutant gene; type: functional
[7] = tested on: Human immunodeficiency virus 1; assay: Antiviral activity against HIV-1 group O expressing gp41 E119Q mutant gene; type: functional

enfuvirtide was tested, and the Activity [1] was “Active”, the Activity [2] was “inactive” and the IC50 [3] was 4 nM. It also gave an IC50 [4] of 6.4 nM, an IC50 [5] of 6.4 nM and an IC50 [6] greater than 1000 nM. The IC50 [7] was greater than 1000 nM.
